Calls of active or inactive are those of the source. No cut-off for these calls is given here.
Target: T1, Prolyl endopeptidase (Homo sapiens) (UniProt P48147)
T1 sequence (whole entry): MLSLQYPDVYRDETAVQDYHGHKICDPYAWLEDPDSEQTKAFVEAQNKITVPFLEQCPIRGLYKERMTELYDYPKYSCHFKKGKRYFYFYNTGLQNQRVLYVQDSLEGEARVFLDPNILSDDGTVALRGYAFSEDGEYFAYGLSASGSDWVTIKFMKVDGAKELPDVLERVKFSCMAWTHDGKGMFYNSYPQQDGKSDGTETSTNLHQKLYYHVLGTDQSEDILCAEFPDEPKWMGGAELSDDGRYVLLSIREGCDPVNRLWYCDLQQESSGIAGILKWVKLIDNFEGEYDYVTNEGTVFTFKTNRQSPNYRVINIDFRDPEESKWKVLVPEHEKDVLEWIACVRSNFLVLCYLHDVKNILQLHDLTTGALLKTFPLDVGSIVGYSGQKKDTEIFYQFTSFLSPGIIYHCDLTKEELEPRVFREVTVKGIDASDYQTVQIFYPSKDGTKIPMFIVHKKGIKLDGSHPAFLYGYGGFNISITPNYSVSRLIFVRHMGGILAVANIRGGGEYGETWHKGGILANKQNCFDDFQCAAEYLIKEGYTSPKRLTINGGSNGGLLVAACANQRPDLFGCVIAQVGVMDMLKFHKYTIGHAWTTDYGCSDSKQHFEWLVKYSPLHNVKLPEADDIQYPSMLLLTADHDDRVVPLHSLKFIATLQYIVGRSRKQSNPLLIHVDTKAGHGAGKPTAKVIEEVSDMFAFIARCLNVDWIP
Assay: Displacement of fluorophosphonate rhodamine from human cloned prolyl oligopeptidase expressed in Escherichia coli at 5 to 100 uM by SDS-PAGE

| Activity | Structure (SMILES) |
| --- | --- |
| Active | C#CCCCC(=O)N[C@@H](Cc1ccc(C(=O)c2ccccc2)cc1)C(=O)NCCCCCC(=O)N1CCC[C@H]1C(=O)N1CCC[C@H]1C=O |
| Active | C#CCCCC(=O)N[C@@H](Cc1ccc(C(=O)c2ccccc2)cc1)C(=O)N1CCC[C@H]1C(=O)N1CCC[C@H]1C=O |
| Active | C#CCCCC(=O)N[C@@H](Cc1ccc(C(=O)c2ccccc2)cc1)C(=O)NCCOCCOCCOCCOCC(=O)N1CCC[C@H]1C(=O)N1CCC[C@H]1C=O |

From ChEMBL document CHEMBL1151936, “Using peptidyl aldehydes in activity-based proteomics” (Bioorg Med Chem Lett, 2009)
